Results from publication PMC6566410, “Novel Diamide-Based Benzenesulfonamides as Selective Carbonic Anhydrase IX Inhibitors Endowed with Antitumor Activity: Synthesis, Biological Evaluation and In Silico Insights” (International Journal of Molecular Sciences, 2019).

Assays:
Test in all cases: NCI one-dose SRB assay
Type in all cases: cell-based
NCI-H522 = settings: Homo sapiens, NCI-H522 (Non-Small Cell Lung Cancer), 1.00E-5 Molar, read-out: Growth Percent
Method: (§1) First, all diamide-based benzenesulfonamides herein reported 5a–h were screened for their antitumor activity at one dose (10^−5 M) assay against a panel of sixty cancer cell lines through the National Cancer Institute (NCI) Developmental Therapeutic Program (www.dtp.nci.nih.gov), according to US-NCI protocol. The cell growth and cell viability were evaluated using the sulforhodamine B (SRB) colorimetric assay.
(§2) This assay was carried out according to the protocol of the Drug Evaluation Branch, NCI, Bethesda. The cell growth and cell viability were evaluated using the sulforhodamine B (SRB) colorimetric assay, as reported earlier.

HT29 = settings: Homo sapiens, HT-29, HT29 (Colon Cancer), 1.00E-5 Molar, read-out: Growth Percent
Method: as §1, §2

RXF 393 = settings: Homo sapiens, RXF 393 (Renal Cancer), 1.00E-5 Molar, read-out: Growth Percent
Method: as §1, §2

PC-3 = settings: Homo sapiens, PC-3 (Prostate Cancer), 1.00E-5 Molar, read-out: Growth Percent
Method: as §1, §2

CAKI-1 = settings: Homo sapiens, CAKI-1 (Renal Cancer), 1.00E-5 Molar, read-out: Growth Percent
Method: as §1, §2

T-47D = settings: Homo sapiens, T47D, T-47D (Breast Cancer), 1.00E-5 Molar, read-out: Growth Percent
Method: as §1, §2

UACC-62 = settings: Homo sapiens, UACC-62 (Melanoma), 1.00E-5 Molar, read-out: Growth Percent
Method: as §1, §2

OVCAR-4 = settings: Homo sapiens, OVCAR-4 (Ovarian Cancer), 1.00E-5 Molar, read-out: Growth Percent
Method: as §1, §2

MOLT-4 = settings: Homo sapiens, MOLT-4 (Leukemia), 1.00E-5 Molar, read-out: Growth Percent
Method: as §1, §2

NCI-H460 = settings: Homo sapiens, NCI-H460 (Non-Small Cell Lung Cancer), 1.00E-5 Molar, read-out: Growth Percent
Method: as §1, §2

LOX IMVI = settings: Homo sapiens, LOX IMVI (Melanoma), 1.00E-5 Molar, read-out: Growth Percent
Method: as §1, §2

A498 = settings: Homo sapiens, A498 (Renal Cancer), 1.00E-5 Molar, read-out: Growth Percent
Method: as §1, §2

U251 = settings: Homo sapiens, U-251, U251 (CNS Cancer), 1.00E-5 Molar, read-out: Growth Percent
Method: as §1, §2

HCT-116 = settings: Homo sapiens, HCT-116 (Colon Cancer), 1.00E-5 Molar, read-out: Growth Percent
Method: as §1, §2

A549/ATCC = settings: Homo sapiens, A549/ATCC (Non-Small Cell Lung Cancer), 1.00E-5 Molar, read-out: Growth Percent
Method: as §1, §2

EKVX = settings: Homo sapiens, EKVX (Non-Small Cell Lung Cancer), 1.00E-5 Molar, read-out: Growth Percent
Method: as §1, §2

SK-OV-3 = settings: Homo sapiens, SK-OV-3 (Ovarian Cancer), 1.00E-5 Molar, read-out: Growth Percent
Method: as §1, §2

SN12C = settings: Homo sapiens, SN12C (Renal Cancer), 1.00E-5 Molar, read-out: Growth Percent
Method: as §1, §2

ACHN = settings: Homo sapiens, ACHN (Renal Cancer), 1.00E-5 Molar, read-out: Growth Percent
Method: as §1, §2

SNB-75 = settings: Homo sapiens, SNB-75 (CNS Cancer), 1.00E-5 Molar, read-out: Growth Percent
Method: as §1, §2

NCI-H322M = settings: Homo sapiens, NCI-H322M (Non-Small Cell Lung Cancer), 1.00E-5 Molar, read-out: Growth Percent
Method: as §1, §2

KM12 = settings: Homo sapiens, KM12 (Colon Cancer), 1.00E-5 Molar, read-out: Growth Percent
Method: as §1, §2

HL-60(TB) = settings: Homo sapiens, HL-60(TB) (Leukemia), 1.00E-5 Molar, read-out: Growth Percent
Method: as §1, §2

TK-10 = settings: Homo sapiens, TK-10 (Renal Cancer), 1.00E-5 Molar, read-out: Growth Percent
Method: as §1, §2

OVCAR-3 = settings: Homo sapiens, OVCAR-3 (Ovarian Cancer), 1.00E-5 Molar, read-out: Growth Percent
Method: as §1, §2

MDA-MB-231/ATCC = settings: Homo sapiens, MDA-MB-231/ATCC (Breast Cancer), 1.00E-5 Molar, read-out: Growth Percent
Method: as §1, §2

IGROV1 = settings: Homo sapiens, IGROV-1, IGROV1 (Ovarian Cancer), 1.00E-5 Molar, read-out: Growth Percent
Method: as §1, §2

M14 = settings: Homo sapiens, M14 (Melanoma), 1.00E-5 Molar, read-out: Growth Percent
Method: as §1, §2

SK-MEL-2 = settings: Homo sapiens, SK-MEL-2 (Melanoma), 1.00E-5 Molar, read-out: Growth Percent
Method: as §1, §2

786-0 = settings: Homo sapiens, 786-0 (Renal Cancer), 1.00E-5 Molar, read-out: Growth Percent
Method: as §1, §2

NCI/ADR-RES = settings: Homo sapiens, NCI/ADR-RES (Ovarian Cancer), 1.00E-5 Molar, read-out: Growth Percent
Method: as §1, §2

SMILES | activity at 10 µM (NCI-H522) | activity at 10 µM (HT29) | activity at 10 µM (RXF 393) | activity at 10 µM (PC-3) | activity at 10 µM (CAKI-1) | activity at 10 µM (T-47D) | activity at 10 µM (UACC-62) | activity at 10 µM (OVCAR-4) | activity at 10 µM (MOLT-4) | activity at 10 µM (NCI-H460) | activity at 10 µM (LOX IMVI) | activity at 10 µM (A498) | activity at 10 µM (U251) | activity at 10 µM (HCT-116) | activity at 10 µM (A549/ATCC) | activity at 10 µM (EKVX) | activity at 10 µM (SK-OV-3) | activity at 10 µM (SN12C) | activity at 10 µM (ACHN) | activity at 10 µM (SNB-75) | further results
COc1ccc(C=C(NC(=O)c2ccccc2)C(=O)Nc2ccc(S(N)(=O)=O)cc2)cc1OC [Compound 5g, N-(1-(3,4-Dimethoxyphenyl)-3-oxo-3-((4-sulfamoylphenyl)amino)prop-1-en-2-yl)benzamide] | 89.1% | 106% | 118% | 103% | 104% | 100% | 94.3% | 105% | 107% | 107% | 100% | 109% | 96.3% | 109% | 106% | 103% | 97.1% | 97.6% | 99.8% | 103% | activity at 10 µM (NCI-H322M): 110%; activity at 10 µM (KM12): 104%; activity at 10 µM (HL-60(TB)): 101%; activity at 10 µM (TK-10): 110%; activity at 10 µM (OVCAR-3): 107%; activity at 10 µM (MDA-MB-231/ATCC): 105%; activity at 10 µM (IGROV1): 91.6%; activity at 10 µM (M14): 113%; activity at 10 µM (SK-MEL-2): 102%; activity at 10 µM (786-0): 109%; activity at 10 µM (NCI/ADR-RES): 104%
COc1ccc(C=C(NC(=O)c2ccccc2)C(=O)Nc2ccc(S(N)(=O)=O)cc2)c(OC)c1 [Compound 5f, N-(1-(2,4-Dimethoxyphenyl)-3-oxo-3-((4-sulfamoylphenyl)amino)prop-1-en-2-yl)benzamide] | 88.2% | 106% | 108% | 96.3% | 92.3% | 101% | 97.2% | 104% | 114% | 109% | 99.8% | 111% | 100% | 104% | 94.9% | 97.3% | 101% | 94.8% | 103% | 92.9% | activity at 10 µM (NCI-H322M): 102%; activity at 10 µM (KM12): 109%; activity at 10 µM (HL-60(TB)): 103%; activity at 10 µM (TK-10): 112%; activity at 10 µM (OVCAR-3): 113%; activity at 10 µM (MDA-MB-231/ATCC): 105%; activity at 10 µM (IGROV1): 91.9%; activity at 10 µM (M14): 111%; activity at 10 µM (SK-MEL-2): 102%; activity at 10 µM (786-0): 103%; activity at 10 µM (NCI/ADR-RES): 109%
